Data published in patent US20240000872A1, “NOVEL BACTERIOPHAGE THAT LYSES ACINETOBACTER GENUS BACTERIA HAVING RESISTANCE TO ANTIBIOTICS” (priority 2020, published 2024).

Tested on: Acinetobacter baumannii strains
Assay: Antibiotic susceptibility test (CLSI disk diffusion test method, read per CLSI 2016); as to antibiotic susceptibility S/I/R: key: ‘S’ means susceptible; ‘I’ means intermediate; ‘R’ means resistant; as to susceptibility category (S/I/R): key: ‘S’ means susceptible; ‘I’ means intermediate; ‘R’ means resistant
Assay type: cell-based
Parameters: antibiotic susceptibility test value / susceptibility test value (number given before S/I/R) / antibiotic susceptibility value: unit not given here

gentamicin
antibiotic susceptibility value (host strain YMC16/01/R353): 16 | susceptibility category (S/I/R) (host strain YMC16/01/R353): R | susceptibility test value (number given before S/I/R) (host strain YMC16/01/R353): 16 | antibiotic susceptibility S/I/R (host strain YMC16/01/R380): R | antibiotic susceptibility value (host strain YMC16/01/R380): 16 | susceptibility category (S/I/R) (host strain YMC16/01/R380): R | susceptibility test value (number given before S/I/R) (host strain YMC16/01/R380): 16 | antibiotic susceptibility S/I/R (host strain YMC16/01/R397): R | antibiotic susceptibility value (host strain YMC16/01/R397): 16 | susceptibility category (S/I/R) (host strain YMC16/01/R397): R | susceptibility test value (number given before S/I/R) (host strain YMC16/01/R397): 16 | antibiotic susceptibility S/I/R (host strain YMC16/01/R405): R | antibiotic susceptibility value (host strain YMC16/01/R405): 16 | susceptibility category (S/I/R) (host strain YMC16/01/R405): R | susceptibility test value (number given before S/I/R) (host strain YMC16/01/R405): 16 | antibiotic susceptibility S/I/R (host strain YMC16/03/R4461): R | antibiotic susceptibility value (host strain YMC16/03/R4461): 16 | susceptibility category (S/I/R) (host strain YMC16/03/R4461): R | susceptibility test value (number given before S/I/R) (host strain YMC16/03/R4461): 16 | antibiotic susceptibility S/I/R (host strain YMC16/05/R2210): R | antibiotic susceptibility value (host strain YMC16/05/R2210): 16 | susceptibility category (S/I/R) (host strain YMC16/05/R2210): R | susceptibility test value (number given before S/I/R) (host strain YMC16/05/R2210): 16 | antibiotic susceptibility S/I/R (host strain YMC16/07/R2512): R | antibiotic susceptibility value (host strain YMC16/07/R2512): 16 | susceptibility category (S/I/R) (host strain YMC16/07/R2512): R | susceptibility test value (number given before S/I/R) (host strain YMC16/07/R2512): 16 | antibiotic susceptibility S/I/R (host strain YMC16/09/R2471): R | antibiotic susceptibility value (host strain YMC16/09/R2471): 16 | susceptibility category (S/I/R) (host strain YMC16/09/R2471): R | susceptibility test value (number given before S/I/R) (host strain YMC16/09/R2471): 16 | antibiotic susceptibility S/I/R (host strain YMC16/10/R2537): R | antibiotic susceptibility value (host strain YMC16/10/R2537): 16 | susceptibility category (S/I/R) (host strain YMC16/10/R2537): R | susceptibility test value (number given before S/I/R) (host strain YMC16/10/R2537): 16 | antibiotic susceptibility S/I/R (host strain YMC16/12/B11422): R | antibiotic susceptibility value (host strain YMC16/12/B11422): 16 | susceptibility category (S/I/R) (host strain YMC16/12/B11422): R | susceptibility test value (number given before S/I/R) (host strain YMC16/12/B11422): 16 | antibiotic susceptibility S/I/R (host strain YMC16/12/B11449): R | antibiotic susceptibility value (host strain YMC16/12/B11449): 16 | susceptibility category (S/I/R) (host strain YMC16/12/B11449): R | susceptibility test value (number given before S/I/R) (host strain YMC16/12/B11449): 16 | antibiotic susceptibility S/I/R (host strain YMC16/12/B13325): R | antibiotic susceptibility value (host strain YMC16/12/B13325): 16 | susceptibility category (S/I/R) (host strain YMC16/12/B13325): R | susceptibility test value (number given before S/I/R) (host strain YMC16/12/B13325): 16 | antibiotic susceptibility S/I/R (host strain YMC16/12/P503): R | antibiotic susceptibility value (host strain YMC16/12/P503): 16 | susceptibility category (S/I/R) (host strain YMC16/12/P503): R | susceptibility test value (number given before S/I/R) (host strain YMC16/12/P503): 16 | antibiotic susceptibility S/I/R (host strain YMC16/12/R4637): R | antibiotic susceptibility value (host strain YMC16/12/R4637): 16 | susceptibility category (S/I/R) (host strain YMC16/12/R4637): R | susceptibility test value (number given before S/I/R) (host strain YMC16/12/R4637): 16 | antibiotic susceptibility S/I/R (host strain YMC17/01/B8053): R | antibiotic susceptibility value (host strain YMC17/01/B8053): 16 | susceptibility category (S/I/R) (host strain YMC17/01/B8053): R | susceptibility test value (number given before S/I/R) (host strain YMC17/01/B8053): 16 | antibiotic susceptibility S/I/R (host strain YMC17/01/B10087): R | antibiotic susceptibility value (host strain YMC17/01/B10087): 16 | susceptibility category (S/I/R) (host strain YMC17/01/B10087): R | susceptibility test value (number given before S/I/R) (host strain YMC17/01/B10087): 16 | antibiotic susceptibility S/I/R (host strain YMC17/01/B12075): S | antibiotic susceptibility value (host strain YMC17/01/B12075): 1 | susceptibility category (S/I/R) (host strain YMC17/01/B12075): S | susceptibility test value (number given before S/I/R) (host strain YMC17/01/B12075): 1 | antibiotic susceptibility S/I/R (host strain YMC17/01/B13454): R | antibiotic susceptibility value (host strain YMC17/01/B13454): 16 | susceptibility category (S/I/R) (host strain YMC17/01/B13454): R | susceptibility test value (number given before S/I/R) (host strain YMC17/01/B13454): 16 | antibiotic susceptibility S/I/R (host strain YMC17/01/P518): R | antibiotic susceptibility value (host strain YMC17/01/P518): 16 | susceptibility category (S/I/R) (host strain YMC17/01/P518): R | susceptibility test value (number given before S/I/R) (host strain YMC17/01/P518): 16 | antibiotic susceptibility S/I/R (host strain YMC17/01/R2812): R | antibiotic susceptibility value (host strain YMC17/01/R2812): 16 | susceptibility category (S/I/R) (host strain YMC17/01/R2812): R | susceptibility test value (number given before S/I/R) (host strain YMC17/01/R2812): 16 | antibiotic susceptibility S/I/R (host strain YMC17/02/B14): R | antibiotic susceptibility value (host strain YMC17/02/B14): 16 | susceptibility category (S/I/R) (host strain YMC17/02/B14): R | susceptibility test value (number given before S/I/R) (host strain YMC17/02/B14): 16 | antibiotic susceptibility S/I/R (host strain YMC17/02/B87): S | antibiotic susceptibility value (host strain YMC17/02/B87): 2 | susceptibility category (S/I/R) (host strain YMC17/02/B87): S | susceptibility test value (number given before S/I/R) (host strain YMC17/02/B87): 2 | antibiotic susceptibility S/I/R (host strain YMC17/02/B721): R | antibiotic susceptibility value (host strain YMC17/02/B721): 16 | susceptibility category (S/I/R) (host strain YMC17/02/B721): R | susceptibility test value (number given before S/I/R) (host strain YMC17/02/B721): 16 | antibiotic susceptibility S/I/R (host strain YMC17/02/B4039): R | antibiotic susceptibility value (host strain YMC17/02/B4039): 16 | susceptibility category (S/I/R) (host strain YMC17/02/B4039): R | susceptibility test value (number given before S/I/R) (host strain YMC17/02/B4039): 16 | antibiotic susceptibility S/I/R (host strain YMC17/02/B4520): R | antibiotic susceptibility value (host strain YMC17/02/B4520): 16 | susceptibility category (S/I/R) (host strain YMC17/02/B4520): R | susceptibility test value (number given before S/I/R) (host strain YMC17/02/B4520): 16 | antibiotic susceptibility S/I/R (host strain YMC17/02/B4864): S | antibiotic susceptibility value (host strain YMC17/02/B4864): 1 | susceptibility category (S/I/R) (host strain YMC17/02/B4864): S | susceptibility test value (number given before S/I/R) (host strain YMC17/02/B4864): 1 | antibiotic susceptibility S/I/R (host strain YMC17/02/B8414): R | antibiotic susceptibility value (host strain YMC17/02/B8414): 16 | susceptibility category (S/I/R) (host strain YMC17/02/B8414): R | susceptibility test value (number given before S/I/R) (host strain YMC17/02/B8414): 16 | antibiotic susceptibility S/I/R (host strain YMC17/02/P523): S | antibiotic susceptibility value (host strain YMC17/02/P523): 4 | susceptibility category (S/I/R) (host strain YMC17/02/P523): S | susceptibility test value (number given before S/I/R) (host strain YMC17/02/P523): 4 | antibiotic susceptibility S/I/R (host strain YMC17/02/R541): R | antibiotic susceptibility value (host strain YMC17/02/R541): 16 | susceptibility category (S/I/R) (host strain YMC17/02/R541): R | susceptibility test value (number given before S/I/R) (host strain YMC17/02/R541): 16 | antibiotic susceptibility S/I/R (host strain YMC17/02/R2392): R | antibiotic susceptibility value (host strain YMC17/02/R2392): 16 | susceptibility category (S/I/R) (host strain YMC17/02/R2392): R | susceptibility test value (number given before S/I/R) (host strain YMC17/02/R2392): 16 | antibiotic susceptibility S/I/R (host strain YMC17/03/B4730): R | antibiotic susceptibility value (host strain YMC17/03/B4730): 16 | susceptibility category (S/I/R) (host strain YMC17/03/B4730): R | susceptibility test value (number given before S/I/R) (host strain YMC17/03/B4730): 16 | antibiotic susceptibility S/I/R (host strain YMC17/03/B5000): R | antibiotic susceptibility value (host strain YMC17/03/B5000): 16 | susceptibility category (S/I/R) (host strain YMC17/03/B5000): R | susceptibility test value (number given before S/I/R) (host strain YMC17/03/B5000): 16 | antibiotic susceptibility S/I/R (host strain YMC17/03/P971): R | antibiotic susceptibility value (host strain YMC17/03/P971): 16 | susceptibility category (S/I/R) (host strain YMC17/03/P971): R | susceptibility test value (number given before S/I/R) (host strain YMC17/03/P971): 16 | antibiotic susceptibility S/I/R (host strain YMC17/03/R348): R | antibiotic susceptibility value (host strain YMC17/03/R348): 16 | susceptibility category (S/I/R) (host strain YMC17/03/R348): R | susceptibility test value (number given before S/I/R) (host strain YMC17/03/R348): 16 | antibiotic susceptibility S/I/R (host strain YMC17/03/R585): R | antibiotic susceptibility value (host strain YMC17/03/R585): 16 | susceptibility category (S/I/R) (host strain YMC17/03/R585): R | susceptibility test value (number given before S/I/R) (host strain YMC17/03/R585): 16 | antibiotic susceptibility S/I/R (host strain YMC17/03/R1888): R | antibiotic susceptibility value (host strain YMC17/03/R1888): 16 | susceptibility category (S/I/R) (host strain YMC17/03/R1888): R | susceptibility test value (number given before S/I/R) (host strain YMC17/03/R1888): 16 | antibiotic susceptibility S/I/R (host strain YMC17/03/R3279): R | antibiotic susceptibility value (host strain YMC17/03/R3279): 16 | susceptibility category (S/I/R) (host strain YMC17/03/R3279): R | susceptibility test value (number given before S/I/R) (host strain YMC17/03/R3279): 16 | antibiotic susceptibility S/I/R (host strain YMC17/03/R4077): R | antibiotic susceptibility value (host strain YMC17/03/R4077): 16 | susceptibility category (S/I/R) (host strain YMC17/03/R4077): R | susceptibility test value (number given before S/I/R) (host strain YMC17/03/R4077): 16 | antibiotic susceptibility S/I/R (host strain YMC17/03/R4607): R | antibiotic susceptibility value (host strain YMC17/03/R4607): 16 | susceptibility category (S/I/R) (host strain YMC17/03/R4607): R | susceptibility test value (number given before S/I/R) (host strain YMC17/03/R4607): 16 | antibiotic susceptibility S/I/R (host strain YMC17/04/R488): R | antibiotic susceptibility value (host strain YMC17/04/R488): 16 | susceptibility category (S/I/R) (host strain YMC17/04/R488): R | susceptibility test value (number given before S/I/R) (host strain YMC17/04/R488): 16 | antibiotic susceptibility S/I/R (host strain YMC17/04/R640): R | antibiotic susceptibility value (host strain YMC17/04/R640): 16 | susceptibility category (S/I/R) (host strain YMC17/04/R640): R | susceptibility test value (number given before S/I/R) (host strain YMC17/04/R640): 16 | antibiotic susceptibility S/I/R (host strain YMC/17/05/R1095): R | antibiotic susceptibility value (host strain YMC/17/05/R1095): 16 | susceptibility category (S/I/R) (host strain YMC/17/05/R1095): R | susceptibility test value (number given before S/I/R) (host strain YMC/17/05/R1095): 16
